{"source": "patent US6133249A", "about": "“Phospholipid and propylene glycol based lubricant” (MacNaught Medical Pty Limited, priority 1995, dated 2000)", "key": {"phospholipases": {"test_system": "phospholipases", "settings": "cited from earlier work"}, "[1]": {"assay": "Retention of radio-labelled DPPC in the joint", "assay_type": "in vivo, horse", "procedure": "4. More quantitative tests were undertaken in a further 4 horses administered radio-labelled 50 mg DPPC in 1 ml. The solution was injected into one contraleteral joint and the horse was sacrificed 2-10 days later when the cartilage was excised and synovial fluid collected for radio-assay."}, "[2]": {"assay": "Miscibility and physical state of phospholipid in propylene glycol", "assay_type": "physicochemical", "settings": "all concentrations / any proportion"}, "[3]": {"assay": "Inflammatory reaction of horse joints (protein, ALP, leucocyte count, specific gravity)", "assay_type": "in vivo", "settings": "1 ml PG only, 6 horses", "procedure": "5. Having established the extreme lubricity imparted by exogenous DPPC and the fact that it is likely to remain in the joint for long enough to be worthwhile clinically, the next step was to look for any inflammatory reaction.\nThe following parameters were used as indices of inflammatory reaction:\n2. Alkaline phosphatase (ALP)\n6. In the next series of trials, the joints of 6 horses were injected with 1 ml of PG only to see whether the solvent was the major cause of the inflammatory reaction.\n7. The main series of trials was then devised to compare the inflammatory reaction of the radiocarpal joint to the product (100 mg DPPC in 1 mlPG) with the reactions to other agents commonly injected into that joint in the normal course of clinical practice.\nThe agents selected for comparison were\n1. A standard clinical (1 ml) dose of prilocaine--a local anaesthetic.\n2. A standard clinical dose of hyaluromic acid (Hyartil)™ (1 ml) a joint lubricant."}, "[4]": {"settings": "cited from earlier work"}}}
{"compound": "CCCCCCCCCCCCCCCC(=O)OC[C@@H](COP(=O)([O-])OCC[N+](C)(C)C)OC(=O)CCCCCCCCCCCCCCC", "note": "[D-enantiomeric alpha-DPPC, alpha-dipalmitoyl phosphatidylcholine]", "values": [{"measurement": "metabolism by endogenous phospholipases", "setting": "phospholipases", "value": "cannot break down"}]}
{"compound": "CCCCCCCCCCCCCCCC(=O)OC[C@H](COP(=O)([O-])OCC[N+](C)(C)C)OC(=O)CCCCCCCCCCCCCCC", "note": "[DPPC, Dipalmitoyl phosphatidylcholine]", "values": [{"measurement": "retention of DPPC in the joint", "setting": "[1]; conclusion", "value": "retained in the joint for long enough to enable lubrication to be maintained by monthly or fortnightly irrigation"}, {"measurement": "time the joint would remain lubricated after an injection", "setting": "[1]; inferred from half-lives", "value": "about one month"}, {"measurement": "miscibility with propylene glycol", "setting": "[2]", "value": "totally miscible"}]}
{"compound": "CCCCCCCCCCCCCCCC(=O)OC[C@H](COP(=O)([O-])OCC[N+](C)(C)C)OC(=O)CCCCCCCCCCCCCCC", "note": "[L-enantiomeric alpha-DPPC, alpha-dipalmitoyl phosphatidylcholine]", "values": [{"measurement": "metabolism by endogenous phospholipases", "setting": "phospholipases", "value": "capable of metabolising"}]}
{"compound": "CC(O)CO", "note": "(centres unmarked) [PG, propylene glycol]", "values": [{"measurement": "solvent as the major cause of the inflammatory reaction", "setting": "[3]", "value": "This proved to be the case"}, {"measurement": "inflammatory reaction relative to hyaluronic acid", "setting": "[4]; mammalian joints and other articulations", "value": "somewhat less severe"}]}
{"compound": "hyaluronic acid", "values": [{"measurement": "inflammatory reaction in animal tissues", "setting": "[4]; in vivo", "value": "appreciable inflammatory reaction"}]}
